Test results as given in patent publication US5843947A, “N-pyridyl carboxamides and derivatives” (priority 1994, dated 1998).

How the values were obtained:
[1] = tested on: inflammation induced by carrageenan (plantar edema); assay: Anti-inflammatory activity: plantar edema using carrageenan; type: in vivo, Sprague-Dawley rats; settings: rat, compounds 10 mg/kg oral 30 min before carrageenan, indomethacin 10 mg/kg
Description: The method used is that of plantar edema using carrageenan. The procedure used is as follows: 1% carrageenan in 0.2 ml of […] is administered into the sole of the right foot of Sprague-Dawley rats weighing 250 g on average. The volume of the paw is measured by plethysmography after one hour and after two hours.
The compounds of the invention are administered in a 10 mg/kg oral dose 30 minutes before the administration of carrageenan. A saline solution is injected into the sole of the left foot, which serves as a control.
The compounds of the invention make it possible to reduce the increase in volume of the right foot relative to that of the left foot (Table 1).

[2] = tested on: acute cutaneous inflammation (phorbol ester ear edema); assay: Activity against acute cutaneous inflammation (topical), phorbol ester ear edema; type: in vivo; settings: mouse, 6 hours
Description: Phorbol ester (phorbol 12-myristate 13-acetate) (5 μg) is applied topically to the front and back surfaces of the right ear of the mouse 30 minutes after application of the vehicle (95% ethanol) or of the agent (1 mg). The difference in thickness between the right ear and the left ear (edema) is measured 6 hours after application.
The percentage of inhibition of cutaneous inflammation relative to a group of animals treated topically with 95% ethanol is calculated. The compound of Example 1, at a rate of 1 mg/ear, allows a 63% reduction of the inflammation. Indomethacin, taken as a reference, at a dose of 2.5 mg/ear, allows a 67% reduction of inflammation.

[3] = tested on: arthritis induced by killed Mycobacterium tuberculosis (complete Freund adjuvant); assay: Study of an activity of anti-arthritic type in rats (complete Freund adjuvant); type: in vivo, Lewis rats; settings: rat, oral, days 1 to 5; day 18
Description: Groups of 5 male or female Lewis rats weighing from 130 to 150 g are used. A suspension of 0.3 mg of killed Mycobacterium tuberculosis in 0.1 cm^3 of mineral oil (complete Freund adjuvant, CFA) is administered into the subplantar region of the right hind foot on day 1. The volumes of the hind feet are measured by water displacement on days 0, 1, 5, 14 and 18. The rats are weighed on days 0 and 18. The test products are suspended in carboxymethylcellulose and administered orally for 5 consecutive days, on days 1 to 5. In parallel, a control group is used in order to eliminate artefacts resulting from the handling of the animals. A group treated with a reference product (hydrocortisone) allows the test to be validated.

[4] = tested on: chronic inflammation of the ear induced by repeated phorbol ester; assay: Curative activity after repeated topical application in chronic inflammation of the ear, repeated phorbol ester (PMA) for 15 days (model of psoriasis); type: in vivo; settings: mouse, 0.5 mg/ear
Description: Phorbol ester (1 μg) is applied topically to the front and back surfaces of the right ear of the mouse on days 0, 2, 4, 7, 9, 11 and 14. The vehicle or the agent is applied topically twice daily, on days 7, 8, 9, 10, 11, 12, 13 and 14, and once on the 15th day. On days 7, 9, 11 and 14 the vehicle or the agent is applied 30 minutes before and after the phorbol ester.
Two parameters are measured
1. Difference in thickness between the right and left ears every day and on days 0, 2, 4, 7, 9, 11 and 14, 6 hours after repeated application of the phorbol ester.
After repeated application of phorbol ester and after 15 days, the thickness reflects not only the presence of an edema and of an infiltration of lymphocyte and monocyte-macrophage neutrophil type cells in the skin tissue (inflammation) but also of an increase in the thickness of the epidermis (epidermal hyperplasia secondary to a proliferation of keratinocytes). […]
The products of the invention, in topical, curative and repeated use, inhibit, between the 8th and 10th days, the chronic inflammation of the right ear (measured, on the one hand, by the difference in thickness between the right ear and the left ear, and, on the other hand, by the difference in weight between the two ears after sacrificing the animal on the 15th day) induced by a repeated application of phorbol ester in mice.

[5] = Study of the diuretic activity (urinary volume); type: in vivo, rats; settings: 6 hours
[6] = tested on: chronic inflammation of the ear induced by repeated phorbol ester; settings: 15 days after repeated application of phorbol ester; cited from earlier work

Row | Molecule | Percentage of inhibition, 1 h [1] [%] | Percentage of inhibition, 2 h [1] [%] | topical activity in the chronic model (in words) [6] | other results
1 | Cc1cc(C)nc(NC(=O)c2cnccn2)c1 | 55 | 64 |  | 
2 | Cc1cc(C)nc(NC(=O)Cc2cccs2)c1 [Example 1, N-(4,6-DIMETHYL-2-PYRIDYL)-2-THIENYLACETAMIDE] |  |  |  | reduction of the inflammation ([2]; 1 mg/ear): 63%; reduction in the volume of the right hind foot [3]: 47%
3 | Cc1nc(N)c(NC(=O)Cc2ccsc2)c(C)c1Br [Example 17, N-(2-AMINO-5-BROMO-4,6-DIMETHYL-3-PYRIDYL)-3-THIENYLACETAMIDE] |  |  |  | reduction of the difference in thickness between the two ears [4]: 60%; reduction of the weight difference ([4]; ear punches): 38%
4 | Cc1cc(C)nc(NC(=NN)c2cnccn2)c1 [Example 25, N-(4,6-DIMETHYL-2-PYRIDYL)-2-PYRAZINECARBOXAMIDE HYDRAZONE] |  |  |  | increase of urinary volume (factor relative to an untreated rat) ([5]; 3 mg/kg p.o.): 2.8
5 | COc1ccc2c(c1)c(CC(=O)O)c(C)n2C(=O)c1ccc(Cl)cc1 [Indomethacin, reference compound] | 24 | 64 | topically inactive | reduction of inflammation, reference ([2]; 2.5 mg/ear): 67%
6 | Cc1cc(C)nc(NC(=O)Cc2cccs2)c1 [drawing 58] | 63 | 70 |  | 
7 | NS(=O)(=O)c1cc(C(=O)O)c(NCc2ccco2)cc1Cl [furosemide, reference compound] |  |  |  | increase of urinary volume (factor), reference ([5]; rat, 5 mg/kg p.o.): 3
8 | CN1C(C(=O)Nc2ccccn2)=C(O)c2ccccc2S1(=O)=O [piroxicam] |  |  | topically inactive | 
9 | cyclosporin A |  |  | topically active | 
